{"source": "patent US4117139A", "about": "“Medicated compound for treating allergic diseases” (priority 1973, dated 1978)", "key": {"[1]": {"assay": "Acute toxicity, diprasine, intravenous", "settings": "intravenously"}, "[2]": {"tested_on": "central nervous system", "assay": "Depressive effect on the central nervous system", "settings": "in vivo", "text": "The majority of modern anti-histamine medicines reveal a strong sedative effect, whereby their administration is substantially limited in the ambulatory treatment, especially in the case of persons engaged in intellectual pursuits, or persons whose occupation requires quick physical and psychic responses, e.g. drivers of transport vehicles."}, "[3]": {"assay": "Embryotoxicity / teratogenicity in pregnant rats", "format": "in vivo", "settings": "per os, single doses 3/4 of LD50, various periods of pregnancy"}, "[4]": {"tested_on": "bronchospasm caused by serotonine (5-hydroxytriptamine)", "assay": "Bronchospasm caused by serotonine", "settings": "in vivo"}, "[5]": {"tested_on": "ophthalmic response (hyperemia and chemosis) caused by histamine", "assay": "Ophthalmic response to histamine instilled into conjunctival sac of guinea pigs", "format": "in vivo"}, "[6]": {"tested_on": "foot edema caused by serotonin", "assay": "Rat foot edema caused by subplantar serotonin", "format": "in vivo, rats", "text": "(§1) The medicated compound of the present invention irrespectively of the medication mode exerts anti-edemic antianaphylactic action."}, "[7]": {"tested_on": "intoxication caused by histamine aerosol", "assay": "Histamine aerosol intoxication in guinea pigs", "format": "in vivo", "settings": "in the stomach, 30 to 50 mg/kg, spraying 300 seconds"}, "[8]": {"tested_on": "hypotensive activity of intravenously injected histamine", "assay": "Hypotensive activity of intravenous histamine in narcotized cats", "format": "in vivo", "settings": "0.2 to 0.5 mg/kg, histamine 1 mcg/kg i.v."}, "[9]": {"tested_on": "bronchial asthma", "assay": "Clinical test: bronchial asthma", "format": "in vivo", "settings": "patients", "text": "(§2) The medicated compound of the present invention was clinically tested on 250 patients aging from 18 to 70 years suffering from allergic diseases for a period of from 3 months to 10 years, and treated with various anti-histamine medicines.\n(§3) The medicated compound of the present invention was used for the treatment of acute and chronic urticaria, hay fever, Quincke's oedema, dermal itch, chronic eczema, polysyndromic phenomena of intolerance (arthropathy, eosinophilia, temperature increase), dermatoblepharoconjunctivitis, and bronchial-asthma."}, "[10]": {"tested_on": "bronchospasm caused by acetylcholine", "assay": "Bronchospasm caused by acetylcholine", "settings": "in vivo"}, "[11]": {"assay": "Acute toxicity in rats", "settings": "rat, in vivo, po, in the stomach"}, "[12]": {"tested_on": "foot edema caused by formalin", "assay": "Rat foot edema caused by subplantar formalin", "format": "in vivo, rats", "settings": "25 mg/kg intraperitoneally and 50 mg/kg in the stomach; formalin 0.2 ml of 2% solution; P over 0.05", "text": "as §1"}, "[13]": {"tested_on": "foot edema caused by dextrane", "assay": "Rat foot edema caused by subplantar dextrane", "format": "in vivo, rats", "settings": "25 mg/kg intraperitoneally and 50 mg/kg in the stomach; dextrane 0.1 ml of 6% solution; P over 0.05", "text": "as §1"}, "[14]": {"tested_on": "anaphylactic response caused by ovalbumin", "assay": "Anaphylactic response to ovalbumin aerosol in actively sensibilized guinea pigs", "settings": "25 mg/kg intraperitoneally and 50 mg/kg in stomach; 25% ovalbumin aerosol, 10 minutes"}, "[15]": {"assay": "Acute toxicity in mice", "settings": "mouse, in vivo"}, "[16]": {"tested_on": "chronic aseptic inflammation", "assay": "Chronic aseptic inflammation by hypodermical implantation of wool balls to rats", "format": "in vivo", "settings": "hypodermically, 25 mg/kg"}, "[17]": {"assay": "Clinical tolerability", "format": "in vivo, patients", "text": "as §2\nHowever, with the patients over 60 years of age, or those weakened by accompanying serious diseases, some cases of a \"seductive\" effect of the medicated compound of the present invention were noticed."}, "[18]": {"tested_on": "bronchoconstricting action of histamine", "assay": "Histamine bronchoconstriction in narcotized guinea pigs (Concette-Rossler method)", "format": "in vivo", "settings": "intravenous, 0.1 to 0.2 mg/kg", "text": "As to the mechanism of its action, the medicated compound of the present invention represents an antagonist to histamine liberated in antigen-antibody reactions."}, "[19]": {"tested_on": "general state and behaviour of animals", "assay": "General state and behaviour after single medication", "format": "in vivo, mice, rats, guinea pigs, cats and dogs", "settings": "different modes, versus dimedrol and diprasine"}, "[20]": {"tested_on": "heart-vascular system, digestive tract, and excretory organs", "assay": "Pharmacological and toxicological studies: heart-vascular system, digestive tract, excretory organs", "settings": "in vivo"}, "[21]": {"assay": "Acute toxicity in guinea pigs", "format": "in vivo"}, "[22]": {"tested_on": "dermatoblepharonconjunctivitis and some other allergic ophthalmic diseases", "assay": "Clinical test: dermatoblepharoconjunctivitis and other allergic ophthalmic diseases", "format": "in vivo, patients", "description": "as §2\n(§4) In the case of dermatoblepharonconjunctivitis and some other allergic ophthalmic diseases, the medicated compound of the present invention was administered per os (one tablet of 0.025 g 3 to 4 times per day)."}, "[23]": {"tested_on": "central nervous system", "assay": "Central nervous system effects in test animals", "format": "in vivo", "settings": "mice, rats, rabbits, cats; different modes of administration"}, "[24]": {"tested_on": "allergic diseases", "assay": "Clinical test on patients suffering from allergic diseases", "format": "in vivo", "text": "as §2\nThe treatment with the medicated compound of the present invention was effected in allergological surgeries under ambulatory and stationary conditions.\nThe majority of the stationary patients were hospitalized with serious, or lasting allergic responses and frequently with accompanying diseases of the heart-vascular system, and digestive tract.\nas §3, §4\nThe medicated compound of the present invention was used individually (without an additional desensibilizing therapy) per os in a dose of from 3 to 6 tablets (0.025 g each) per day, usually directed after eating."}, "[25]": {"assay": "Repeated administration to rats", "format": "in vivo"}, "[26]": {"settings": "rats, in the stomach, 22 times, 1/4 of LD50"}}, "note": "Where a name gives a salt, the structure may show the parent alone."}
{"smiles": "CC(CN1c2ccccc2Sc2ccccc21)N(C)C", "note": "(centres unmarked) [diprasine (promethasine), promethasine]", "values": [{"measurement": "dose resulting in the death of half of the animals", "setting": "[1]", "value": 25, "unit": "mg/kg"}]}
{"smiles": "OC(c1ccccc1)(c1ccccc1)C1CN2CCC1CC2", "note": "(centres unmarked) [(quinuclidyl-3)-diphenylcarbinol hydrochloride]", "values": [{"measurement": "depressive effect on the central nervous system", "setting": "[2]", "value": "does not exert a depressive effect on the central nervous system"}, {"measurement": "embriotoxic or teratogenic effects", "setting": "[3]", "value": "does not exert any embriotoxic or teratogenic effects"}, {"measurement": "influence on bronchospasm caused by serotonine", "setting": "[4]", "value": "only a slight influence"}, {"measurement": "ophthalmic response (hyperemia and chemosis)", "setting": "[5]; into the stomach, 50 mg/kg, 2% solution of histamine", "value": "prevents or substantially reduces ophthalmic response"}, {"measurement": "reduction of foot edema of hind limb, serotonin", "setting": "[6]; 25 mg/kg intraperitoneally and 50 mg/kg in the stomach, serotonin 5 mcg, P over 0.05", "value": "more than 2 times"}, {"measurement": "anti-edemic efficiency relative to dimedrol and diprasine", "setting": "[6]; rat foot edema (serotonin, formalin, dextrane)", "value": "more efficient than dimedrol, and more active than diprasine (promethasine)"}, {"measurement": "protection from intoxication (dispnea, apnoea, clono-tonic spasm)", "setting": "[7]", "value": "completely protects the animals"}, {"measurement": "hypotensive activity of histamine", "setting": "[8]", "value": "prevents hypotensive activity"}, {"measurement": "efficacy in bronchial asthma", "setting": "[9]", "value": "inefficient"}, {"measurement": "influence on bronchospasm caused by acetylcholine", "setting": "[10]", "value": "only a slight influence"}, {"measurement": "LD50", "setting": "[11]", "value": 440, "unit": "mg/kg"}, {"measurement": "reduction of foot edema of hind limb, formalin", "setting": "[12]", "value": "more than 2 times"}, {"measurement": "reduction of foot edema of hind limb, dextrane", "setting": "[13]", "value": "more than 2 times"}, {"measurement": "antiallergic effect", "setting": "[14]", "value": "clearly pronounced antiallergic effect"}, {"measurement": "signs of anaphylactic response / latent period", "setting": "[14]", "value": "increasing the latent period, or completely inhibiting signs of anaphylactic response"}, {"measurement": "LD50", "setting": "[15]; iv", "value": 62, "unit": "mg/kg"}, {"measurement": "LD50", "setting": "[15]; po", "value": 370, "unit": "mg/kg"}, {"measurement": "anti-inflammation effect", "setting": "[16]", "value": "pronounced anti-inflammationeffect"}, {"measurement": "anti-inflammation effect relative to dimedrol", "setting": "[16]", "value": "superior over dimedrol"}, {"measurement": "tolerability", "setting": "[17]; human, in vivo", "value": "well tolerated"}, {"measurement": "\"seductive\" effect", "setting": "[17]; patients over 60 years of age or weakened by accompanying serious diseases", "value": "some cases"}, {"measurement": "discomfort", "setting": "[17]; patients with accompanying serious diseases of the digestive tract", "value": "short-time phenomena of discomfort are possible"}, {"measurement": "time to disappearance of discomfort", "setting": "[17]; patients with accompanying serious diseases of the digestive tract, without cancelling or reducing dosage", "value": "1 to 2", "unit": "days"}, {"measurement": "bronchoconstricting action of histamine", "setting": "[18]", "value": "weakens, or inhibits the bronchoconstricting action of histamine"}, {"measurement": "influence on general state and behaviour of animals", "setting": "[19]", "value": "to a considerably lesser extent than dimedrol (diphenhydramine) and especially diprasine (promethasine)"}, {"measurement": "influence on heart-vascular system, digestive tract, and excretory organs", "setting": "[20]", "value": "only a relatively slight influence"}, {"measurement": "absolute lethal dose", "setting": "[21]", "value": 500, "unit": "mg/kg"}, {"measurement": "curing action in allergic ophthalmic diseases", "setting": "[22]; per os, one tablet of 0.025 g 3 to 4 times per day", "value": "satisfactory curing action"}, {"measurement": "therapeutic effect with corticosteroids", "setting": "[22]; simultaneous administration of corticosteroids (dexamethazone)", "value": "therapeutic effect was enhanced"}, {"measurement": "action of various hypnotics", "setting": "[23]", "value": "does not extend the action of various hypnotics"}, {"measurement": "influence on latent period of conditioned reflexes", "setting": "[23]", "value": "nor has it any influence"}, {"measurement": "influence on spontaneous motor activity", "setting": "[23]", "value": "no influence"}, {"measurement": "influence on summation ability of the central nervous system", "setting": "[23]", "value": "no influence"}, {"measurement": "efficacy in allergic diseases", "setting": "[24]; acute and chronic urticaria, hay fever, vasomotor rhinitis, Quincke's oedema, itching dermatosis, chronic eczema, polysyndromic phenomena of intolerance", "value": "highly efficient"}, {"measurement": "efficacy in patients with developed adaptation to other anti-histamine medicines", "setting": "[24]; human, in vivo", "value": "efficient"}, {"measurement": "time to better condition of patients (dermal eruptions and itching reduced)", "setting": "[24]; per os, 3 to 6 tablets (0.025 g each) per day", "value": 3, "unit": "days"}, {"measurement": "influence on general state and behaviour, peripheral blood, biochemical characteristics of blood and urina", "setting": "[25]; [26]", "value": "no essential influence"}, {"measurement": "pathomorphological changes in internal organs", "setting": "[25]; [26]", "value": "no pathomorphological changes in internal organs"}, {"measurement": "tolerance of repeated administration", "setting": "[25]; relatively high doses", "value": "well tolerated by the test animals"}]}
{"smiles": "CN(C)CCOC(c1ccccc1)c1ccccc1", "note": "[dimedrol, diphenhydramine hydrochloride, reference compound]", "values": [{"measurement": "effect on ophthalmic response", "setting": "[5]; similar experiments, compared with the medicated compound", "value": "much less pronounced"}]}
